How the values were obtained:
[1] = system: Zsw77 (RNA, riboswitch) GGAUACAGGACUGGCGGAUUAGUGGAAGCAACCACGUGGACUGUAUCCGAAGAAAAGCCGACCGCCUGGGCAAAAA; experiment: ITC; conditions: K+ 50 mM KCl + 25 mM potassium phosphate; Mg2+ 10 mM MgCl2 (assumed from NMR prep); pH 6.2; 60 μM RNA; stoichiometry free, binding-competent fraction 53%
[2] = system: Zsw81 (RNA, riboswitch) GGAUACAGGACUGGCGGAUUAGUGGAAGCAACCACGUGGACUGUAUCCGAAGAAAAGCCGACCGCCUGGGCAAAAAUUAG; experiment: ITC; conditions: K+ 50 mM KCl + 25 mM potassium phosphate; Mg2+ 10 mM MgCl2 (assumed from NMR prep); pH 6.2; 60 μM RNA; stoichiometry free, binding-competent fraction 13%
[3] = system: Zsw91 (RNA, riboswitch) GGAUACAGGACUGGCGGAUUAGUGGAAGCAACCACGUGGACUGUAUCCGAAGAAAAGCCGACCGCCUGGGCAAAAAUUAGCCCAGGCGGU; experiment: ITC; conditions: K+ (50 mM KCl, 25 mM potassium phosphate); Mg2+ for ITC not stated; pH 6.2; 60 μM RNA, 600 μM ZMP in syringe
[4] = system: Zsw101 (RNA, riboswitch) GGAUACAGGACUGGCGGAUUAGUGGAAGCAACCACGUGGACUGUAUCCGAAGAAAAGCCGACCGCCUGGGCAAAAAUUAGCCCAGGCGGUAUUUAUUUUU; experiment: 1H NMR; conditions: 50 mM KCl, 25 mM potassium phosphate, Mg2+; pH 6.2
[5] = system: Zsw48+Zsw15 (RNA, riboswitch) GGAUACAGGACUGGCGGAUUAGUGGAAGCAACCACGUGGACUGUAUCCG/GCCGACCGCCUGGGC; experiment: 1H NMR; conditions: 50 mM KCl, 25 mM potassium phosphate, 10 mM Mg2+; pH 6.2; 100 μM RNA, 2 eq. ZMP; affinity lower than Zsw77
[6] = system: Zsw83 (RNA, riboswitch) GGAUACAGGACUGGCGGAUUAGUGGAAGCAACCACGUGGACUGUAUCCGAAGAAAAGCCGACCGCCUGGGCAAAAAUUAGCC; experiment: 1H NMR titration; conditions: 50 mM KCl, 25 mM potassium phosphate, 10 mM Mg2+; pH 6.2; 120 μM RNA; up to 2 eq. ZMP
[7] = system: Zsw84 (RNA, riboswitch) GGAUACAGGACUGGCGGAUUAGUGGAAGCAACCACGUGGACUGUAUCCGAAGAAAAGCCGACCGCCUGGGCAAAAAUUAGCCC; experiment: 1H NMR titration; conditions: 50 mM KCl, 25 mM potassium phosphate, 10 mM Mg2+; pH 6.2; up to 2 eq. ZMP
[8] = system: Zsw85 (RNA, riboswitch) GGAUACAGGACUGGCGGAUUAGUGGAAGCAACCACGUGGACUGUAUCCGAAGAAAAGCCGACCGCCUGGGCAAAAAUUAGCCCA; experiment: 1H NMR titration; conditions: 50 mM KCl, 25 mM potassium phosphate, 10 mM Mg2+; pH 6.2; up to 2 eq. ZMP
[9] = system: Zsw86 (RNA, riboswitch) GGAUACAGGACUGGCGGAUUAGUGGAAGCAACCACGUGGACUGUAUCCGAAGAAAAGCCGACCGCCUGGGCAAAAAUUAGCCCAG; experiment: 1H NMR titration; conditions: 50 mM KCl, 25 mM potassium phosphate, 10 mM Mg2+; pH 6.2; up to 2 eq. ZMP
[10] = system: Zsw87 (RNA, riboswitch) GGAUACAGGACUGGCGGAUUAGUGGAAGCAACCACGUGGACUGUAUCCGAAGAAAAGCCGACCGCCUGGGCAAAAAUUAGCCCAGG; experiment: 1H NMR titration; conditions: 50 mM KCl, 25 mM potassium phosphate, 10 mM Mg2+; pH 6.2; up to 2 eq. ZMP
[11] = system: Zsw89 (RNA, riboswitch) GGAUACAGGACUGGCGGAUUAGUGGAAGCAACCACGUGGACUGUAUCCGAAGAAAAGCCGACCGCCUGGGCAAAAAUUAGCCCAGGCG; experiment: 1H NMR titration; conditions: 50 mM KCl, 25 mM potassium phosphate, 10 mM Mg2+; pH 6.2; up to 2 eq. ZMP
[12] = system: Zsw90 (RNA, riboswitch) GGAUACAGGACUGGCGGAUUAGUGGAAGCAACCACGUGGACUGUAUCCGAAGAAAAGCCGACCGCCUGGGCAAAAAUUAGCCCAGGCGG; experiment: 1H NMR titration; conditions: 50 mM KCl, 25 mM potassium phosphate, 10 mM Mg2+; pH 6.2; up to 2 eq. ZMP
[13] = system: Zsw82 (RNA, riboswitch) GGAUACAGGACUGGCGGAUUAGUGGAAGCAACCACGUGGACUGUAUCCGAAGAAAAGCCGACCGCCUGGGCAAAAAUUAGC; experiment: ITC and 1H NMR titration; conditions: 50 mM KCl, 25 mM potassium phosphate, 10 mM Mg2+ (NMR); pH 6.2; minor binding-competent population prevented curve fitting
[14] = system: Zsw77 (RNA, riboswitch) GGAUACAGGACUGGCGGAUUAGUGGAAGCAACCACGUGGACUGUAUCCGAAGAAAAGCCGACCGCCUGGGCAAAAA; experiment: 1H NMR titration, U42 imino intensity; conditions: 50 mM KCl, 25 mM potassium phosphate, 10 mM Mg2+; pH 6.2; RNA concentration free in fit, binding-competent fraction 70%
[15] = system: Zsw81 (RNA, riboswitch) GGAUACAGGACUGGCGGAUUAGUGGAAGCAACCACGUGGACUGUAUCCGAAGAAAAGCCGACCGCCUGGGCAAAAAUUAG; experiment: 1H NMR titration, U42 imino intensity; conditions: 50 mM KCl, 25 mM potassium phosphate, 10 mM Mg2+; pH 6.2; RNA concentration free in fit, binding-competent fraction 43%

- dissociation constant [1]: 0.57 µM
- dissociation constant [2]: 0.54 µM
- binding [3]: no
- binding [4]: no
- binding [5]: yes
- binding [6]: no
- binding [7]: no
- binding [8]: no
- binding [9]: no
- binding [10]: no
- binding [11]: no
- binding [12]: no
- binding [13]: weak
- dissociation constant [14]: 2.78 µM
- dissociation constant [15]: 2.58 µM
SMILES: NC(=O)c1ncn([C@@H]2O[C@H](COP(=O)(O)O)[C@@H](O)[C@H]2O)c1N

Reference: article PMC7337938 (2020)
